In assay [1] the target is T1, human CB1 receptor (Homo sapiens, UniProt P21554).
T1 construct: host or cells: CHO-RD-HGA16 cells (CHO cells overexpressing promiscuous Galpha16)
The assay can be described thus: CB1 calcium mobilization assay (antagonist mode, against EC80 of CP55,940). It counts as cell-based.

Assay [2] addresses T1, human CB1 receptor. The assay can be described thus: CB1 calcium mobilization assay, agonist screen. The assay is classed as cell-based. The conditions noted are these: Table 1; 10,000 nM final concentration; mean ± SD.
Protocol: CHO-RD-HGA16 cells (Molecular Devices, CA) stably expressing the human CB1 receptor were plated into 96-well black-walled assay plates at 25,000 cells/well in 100 μL of Ham's F12 (supplemented with 10% fetal bovine serum, 100 units of penicillin/streptomycin, and 100 μg/mL Normocin) and incubated overnight at 37° C., 5% CO2. Calcium 5 dye (Molecular Devices, CA) was reconstituted according to the manufacturer's instructions. The reconstituted dye was diluted 1:40 in prewarmed (37° C.) assay buffer (1×HBSS, 20 mM HEPES, 2.5 mM probenecid, pH 7.4 at 37° C.). Growth medium was removed, and the cells were gently washed with 100 μL of prewarmed (37° C.) assay buffer. The cells were incubated for 45 min at 37° C., 5% CO2 in 200 μL of the diluted Calcium 5 dye solution. […] Serial dilutions of the test compounds were prepared at 10× the desired final concentration in 2.25% BSA/4.5% DMSO/4.5% EtOH/assay buffer. After the dye loading incubation period, the cells were pretreated with 25 μL of the test compound serial dilutions and incubated for 15 min at 37° C. After the pretreatment incubation period, the plate was read with a FLIPR Tetra (Molecular Devices, CA). Calcium-mediated changes in fluorescence were monitored every 1 s over a 90 s time period, with the Tetra adding 25 μL of the CP55,940 EC80 concentration at the 10s time point (excitation/emission: 485/525 nm). Relative fluorescence units (RFU) were plotted against the log of compound concentrations. Data were fit to a three-parameter logistic curve to generate IC50 values (GraphPad Prism 6.0, CA). […] For agonist screens, the above procedure was followed except that cells were pretreated with 2.25% BSA/4.5% DMSO/4.5% EtOH/assay buffer and the Tetra added single concentration dilutions of the test compounds prepared at 10× the desired final concentration in 0.25% BSA/0.5% DMSO/0.5% EtOH/assay buffer. Test compound RFUs were compared to the CP55,940 Emax RFUs to generate % Emax values.
Where [3] appears, read: Table 1, against EC80 (100 nM) of CP55,940, mean ± S.E.M., read-out: CB1 calcium assay IC50.

Read-outs that look alike come from different tables or passages of the source.

T1 sequence (P21554 whole entry): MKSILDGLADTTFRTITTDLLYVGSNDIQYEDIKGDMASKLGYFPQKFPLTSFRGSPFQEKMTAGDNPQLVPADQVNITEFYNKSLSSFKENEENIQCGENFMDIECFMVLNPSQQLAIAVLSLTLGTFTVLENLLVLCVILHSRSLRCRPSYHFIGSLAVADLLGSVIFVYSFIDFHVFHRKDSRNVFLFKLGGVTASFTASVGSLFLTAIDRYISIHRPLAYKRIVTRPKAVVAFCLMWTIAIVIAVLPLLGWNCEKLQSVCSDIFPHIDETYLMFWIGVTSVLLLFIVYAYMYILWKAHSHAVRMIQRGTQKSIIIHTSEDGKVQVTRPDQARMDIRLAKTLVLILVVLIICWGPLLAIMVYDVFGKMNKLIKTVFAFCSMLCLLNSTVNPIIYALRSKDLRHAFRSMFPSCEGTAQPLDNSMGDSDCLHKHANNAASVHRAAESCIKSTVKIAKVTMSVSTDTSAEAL

The term IC50 denotes the concentration at which inhibition is half-maximal. Turning to `O=C(Nc1ccc(Cl)cc1)Nc1cccc(-c2cncnc2)c1` [Compound 21, 3-(4-Chlorophenyl)-1-[3-(pyrimidin-5-yl)phenyl]urea], the IC50 at human CB1 receptor [1] (setting [3]) amounted to 0.29 ± 0.024 µM. Further, on human CB1 receptor [2], the “CB1 calcium assay Agonist screen (% CP55, 940 Emax)” value is reported as 2.5 ± 6.2 % CP55, 940 Emax. As to `CN1CCN(c2cccc(NC(=O)Nc3ccc(Cl)cc3)c2)CC1` [Compound 79, 1-(4-Chlorophenyl)-3-[3-(4-methylpiperazin-1-yl)phenyl]urea], the IC50 on human CB1 receptor [1] (setting [3]) came out at 2.88 µM. Moreover, at human CB1 receptor [2], the “CB1 calcium assay Agonist screen (% CP55, 940 Emax)” value is 27.6 ± 2.0 % CP55, 940 Emax. In the case of `O=C(Nc1ccc(Cl)cc1)Nc1cccc(-c2cccnc2)c1` [Compound 19, 3-(4-Chlorophenyl)-1-[3-(pyridin-3-yl)phenyl]urea], at human CB1 receptor [1] (setting [3]), the concentration for half-maximal inhibition (IC50) was 0.244 ± 0.045 µM. Also, the “CB1 calcium assay Agonist screen (% CP55, 940 Emax)” value on human CB1 receptor [2] is listed as 34.2 ± 9.3 % CP55, 940 Emax. As for `O=C(Nc1ccc(Cl)cc1)Nc1cccc(N2C3CCC2CC3)c1` [Compound 82, 3-(4-Chlorophenyl)-1-{3-[(1S,4S)-7-azabicyclo[2.2.1]heptan-7-yl]phenyl}urea], the 50% inhibitory concentration (IC50) on human CB1 receptor [1] was found to be 2.7 µM. Also, the “CB1 calcium assay Agonist screen (% CP55, 940 Emax)” value on human CB1 receptor [2] was 5.5 ± 1.3 % CP55, 940 Emax.

On to `O=C(Nc1ccc(Cl)cc1)Nc1cccc(-c2ccc(Cl)cc2)c1` [Compound 30, 3-(4-Chlorophenyl)-1-[3-(4-chlorophenyl)phenyl]urea], for which, on human CB1 receptor [1] (setting [3]), the IC50 amounted to 0.095 ± 0.009 µM. For the same molecule, the “CB1 calcium assay Agonist screen (% CP55, 940 Emax)” value at human CB1 receptor [2] is 21.3 ± 3.7 % CP55, 940 Emax. On to `CC(C)(C)c1ccc(-c2cccc(NC(=O)Nc3ccc(Cl)cc3)c2)cc1` [Compound 36, 3-(4-Chlorophenyl)-1-[3-(4-tert-butylphenyl)phenyl]urea], for which the 50% inhibitory concentration (IC50) at human CB1 receptor [1] (setting [3]) was 0.591 ± 0.048 µM. Further, the “CB1 calcium assay Agonist screen (% CP55, 940 Emax)” value at human CB1 receptor [2] is 4.0 ± 1.0 % CP55, 940 Emax. For the molecule `Cc1ccccc1-c1cccc(NC(=O)Nc2ccc(Cl)cc2)c1` [Compound 28, 3-(4-Chlorophenyl)-1-[3-(2-methylphenyl)phenyl]urea], the IC50 at human CB1 receptor [1] (setting [3]) stood at 0.19 ± 0.045 µM. The “CB1 calcium assay Agonist screen (% CP55, 940 Emax)” value on human CB1 receptor [2] is listed as 4.4 ± 2.7 % CP55, 940 Emax. For `CC(C)(C)c1cc(-c2cccc(NC(=O)Nc3ccc(Cl)cc3)c2)cc(C(C)(C)C)c1` [Compound 37, 3-(4-Chlorophenyl)-1-[3-(3,5-di-tert-butylphenyl)phenyl]urea], the IC50 on human CB1 receptor [1] (setting [3]) was 0.46 ± 0.039 µM. For the same molecule, the “CB1 calcium assay Agonist screen (% CP55, 940 Emax)” value on human CB1 receptor [2] is 10.4 ± 2.1 % CP55, 940 Emax. Regarding `O=C(Nc1ccc(Cl)cc1)Nc1cccc(CN2CCCC2)c1` [Compound 90, 3-(4-Chlorophenyl)-1-[3-(pyrrolidin-1-ylmethyl)phenyl]urea], the IC50 on human CB1 receptor [1] (setting [3]) was more than 10 µM. Further, on human CB1 receptor [2], the “CB1 calcium assay Agonist screen (% CP55, 940 Emax)” value is 27.5 ± 4.5 % CP55, 940 Emax. On to `O=C(Nc1ccc(Cl)cc1)Nc1cccc(-c2c(Cl)cccc2Cl)c1` [Compound 33, 3-(4-Chlorophenyl)-1-[3-(2,6-dichlorophenyl)phenyl]urea], for which, on human CB1 receptor [1] (setting [3]), the IC50 worked out at 0.338 ± 0.019 µM. The “CB1 calcium assay Agonist screen (% CP55, 940 Emax)” value on human CB1 receptor [2] was 17.2 ± 3.1 % CP55, 940 Emax. Take `Cc1ccnc(-c2cccc(NC(=O)Nc3ccc(Cl)cc3)c2)c1` [Compound 16, 3-(4-Chlorophenyl)-1-[3-(4-methylpyridin-2-yl)phenyl]urea]: the “CB1 calcium assay Agonist screen (% CP55, 940 Emax)” value on human CB1 receptor [2] was 2.9 ± 0.1 % CP55, 940 Emax.

Regarding `CN(C)c1cccc(NC(=O)Nc2ccc(Cl)cc2)c1` [Compound 85, 1-(4-Chlorophenyl)-3-[3-(dimethylamino)phenyl]urea], at human CB1 receptor [1] (setting [3]), the IC50 was determined as 0.113 ± 0.019 µM. For the same molecule, the “CB1 calcium assay Agonist screen (% CP55, 940 Emax)” value at human CB1 receptor [2] was 14.5 ± 4.9 % CP55, 940 Emax. For `O=C(Nc1ccc(Cl)cc1)Nc1cccc(OC2CCCC2)c1` [Compound 95, 3-(4-Chlorophenyl)-1-[3-(cyclopentyloxy)phenyl]urea], at human CB1 receptor [1] (setting [3]), the IC50 was found to be 0.277 ± 0.036 µM. The “CB1 calcium assay Agonist screen (% CP55, 940 Emax)” value on human CB1 receptor [2] is reported as 11.7 ± 1.4 % CP55, 940 Emax. Take `O=C(Nc1ccc(Cl)cc1)Nc1cccc(-c2ccc(C(=O)c3ccccc3)cc2)c1` [Compound 40, 3-(4-Chlorophenyl)-1-[3-(4-benzoylphenyl)phenyl]urea]: the “CB1 calcium assay Agonist screen (% CP55, 940 Emax)” value on human CB1 receptor [2] is 12.9 ± 1.7 % CP55, 940 Emax.

The values above are taken from US11084781B2, “Diarylureas as CB1 allosteric modulators” (Research Triangle Institute, priority 2017, dated 2021).
